{"source": "patent US7083969B2", "about": "“Serratia marcescens strain” (Korea Research Institute of Bioscience and Biotechnology, priority 1997, dated 2006)", "key": {"T lymphocytes [1]": {"tested_on": "T lymphocytes", "assay": "Mixed lymphocyte reaction (T-cell response)", "format": "cell-based, mice", "details": "for Immune Response (%) T cell: third day", "description": "(§1) Germ-free test animals, mice BDF1 and B6C3F1, obtained from Genetic Resources Center, Korean Research Institute of Bioscience and Biotechnology in the Korean Institute of Science and Technology, were used for the assay of the immunosuppressive activity of prodigiosin. […] At such concentrations as show no cytotoxic effects, prodigiosin cannot suppress the immune response of B lymphocytes. […] This selective immunosuppression for T lymphocytes is not ascribed to the selective cytotoxicity for T lymphocytes. The same immunosuppression results as in the ex vivo experiments were obtained in in vivo experiments. When T lymphocyte activity was measured by use of a graft versus host reaction and a T cell-dependent antibody producing reaction, the prodigiosin suppressed the immune response, but exerted no toxicity on animals. Therefore, the immunosuppressive activity of the prodigiosin is thought to be attributed to the selective suppression for T lymphocyte activity.\n(§2) The influence of prodigiosin on the functions of lymphocytes was measured using three reaction systems. First, the ability of B lymphocyte to proliferate in response to lipopolysaccharide stimulus was assessed. For this, on the third day after stimulation with lipopolysaccharide, the antibody production of the B lymphocyte was measured. When B lymphocytes are stimulated with lipopolysaccharide, they can produce antibodies without the aid of T lymphocyte. Second, a mixed lymphocyte reaction was induced in order to assess the effect on T-cell response. The reaction needs no aids from the B lymphocyte. On the third day after two types of heteroimmune cells, which are different from each other in histocompatibility antigen, were mixed to stimulate the activity of T lymphocytes, the T-cell response-was assessed. Third, the T-cell dependent antibody producing reaction was utilized to assess the effect of prodigiosin on the simultaneous immune response of both of the B and T lymphocytes. This reaction requires the functions of B and T lymphocytes, simultaneously. On the fifth day after immunization of the lymphocytes with the red blood cells of sheep, their antibody production ability was assessed.\n(§3) In Table 3, the values are relative to the immune response of the lymphocytes untreated with prodigiosin."}, "[2]": {"tested_on": "CD4 T cell (helper T cell)", "assay": "Selective cytotoxicity: proportion of CD4 T cells after treatment", "format": "cell-based, mice", "details": "proportion of the cells", "description": "as §1\nWhether the selective immunosuppression of prodigiosin for T cells is attributed to the selective cytotoxicity for T cells or not was assayed by measuring the proportion of the cells. On the third day after treatment of the immune cells with prodigiosin, the number of the cells was counted. Because T lymphocytes consist of CD4 T cell (helper T cell) and CD8 T cell (cytotoxic T cell), the proportion of T and B lymphocytes was calculated in this Example."}, "CD4 T lymphocytes": {"tested_on": "CD4 T lymphocytes", "assay": "Immunosuppressive activity on CD4 T lymphocytes", "format": "cell-based"}, "T lymphocyte": {"tested_on": "T lymphocyte", "assay": "Concanavalin A-induced T lymphocyte proliferation (DNA synthesis)", "format": "cell-based, mice", "details": "for Proliferation (%) T cell: three days", "description": "as §1\n(§4) Three standard substances which induce lymphocytes to proliferate were employed to measure the effect of the prodigiosin on proliferation of lymphocytes. 5 μg/ml of lipopolysaccharide were used to induce B lymphocyte to proliferate, 5 μg/ml of Concanavalin A for T lymphocyte and 5 μg/ml of Pokeweed mitogen for B and T lymphocytes, both. Prodigiosin was added, together with the proliferation-inducing substance. Three days after the addition, the proliferation effect was monitored by measuring the amount of DNA synthesized. In order to exclude the cytotoxicity of prodigiosin, it was used at a concentration of not more than 100 nM. In Table 2, the proliferation percentages mean the proliferated amounts of prodigiosin-treated lymphocytes relative to that of an non-treated group. As shown, the suppression percentage effected by prodigiosin in amounts of 30–100 nM reaches up to 96–98% for the T lymphocyte induced by concanavalin A while the proliferation of B lymphocyte induced by lipopolysaccharide and the proliferation of B/T lymphocytes induced by pokeweed mitogen are suppressed to the extent of 13–19% and 45–83%, respectively."}, "B and T lymphocytes [3]": {"tested_on": "B and T lymphocytes", "assay": "Pokeweed mitogen-induced B and T lymphocyte proliferation (DNA synthesis)", "format": "cell-based, mice", "details": "for Proliferation (%) B/T cells: three days", "description": "as §1, §4"}, "T lymphocytes [4]": {"tested_on": "T lymphocytes", "assay": "T cell-dependent immune response in vivo (antibody producing cells after sheep red blood cell immunization)", "design": "species or system mice", "details": "for Immune Response (%): 4 days after immunization", "description": "as §1\nA T cell-dependent immune response reaction was used to assess the influence of prodigiosin on T lymphocytes in vivo. Test animals were immunized with sheep red blood cells by peritoneal injection. 4 days after the immunization, the number of the antibody producing cells was counted. Prodigiosin was peritoneally injected everyday. Based on the number of the […] cells in the non-treated animals, the influence of prodigiosin on T lymphocytes in vivo was assessed as percentage. Also, the weight ratio of the spleen to the body was measured to assay the toxicity of prodigiosin to the animals. Cyclophosphamide was used as a positive control."}, "B lymphocyte": {"tested_on": "B lymphocyte", "assay": "Lipopolysaccharide-induced B lymphocyte proliferation (DNA synthesis)", "format": "cell-based, mice", "details": "for Proliferation (%) B cell: three days", "description": "as §1, §4"}, "B and T lymphocytes [5]": {"tested_on": "B and T lymphocytes", "assay": "T-cell dependent antibody producing reaction in vitro (sheep red blood cells)", "format": "cell-based, mice", "description": "as §1, §2, §3"}}}
{"compound": "CCCCCC1=C/C(=C/c2[nH]c(-c3ccc[nH]3)cc2OC)N=C1C", "note": "[Prodigiosin, prodigiosin]", "values": [{"measurement": "Immune Response (%) T cell", "setting": "T lymphocytes [1]; 3 nM, mixed lymphocyte reaction, relative to untreated lymphocytes", "value": 111, "unit": "%"}, {"measurement": "Immune Response (%) T cell", "setting": "T lymphocytes [1]; 10 nM", "value": 110, "unit": "%"}, {"measurement": "Immune Response (%) T cell", "setting": "T lymphocytes [1]; 30 nM", "value": 67, "unit": "%"}, {"measurement": "Immune Response (%) T cell", "setting": "T lymphocytes [1]; 100 nM", "value": 30, "unit": "%"}, {"measurement": "immune response in which T lymphocytes are involved", "setting": "T lymphocytes [1]; Table 3 concentration range", "value": "significantly suppressed"}, {"measurement": "Proliferation (%) CD4 T cell", "setting": "[2]; 3 nM, third day after treatment", "value": 31, "unit": "%"}, {"measurement": "Proliferation (%) CD4 T cell", "setting": "[2]; 10 nM, third day", "value": 31, "unit": "%"}, {"measurement": "Proliferation (%) CD4 T cell", "setting": "[2]; 30 nM, third day", "value": 31, "unit": "%"}, {"measurement": "Proliferation (%) CD4 T cell", "setting": "[2]; 100 nM, third day", "value": 29, "unit": "%"}, {"measurement": "immunosuppressive activity on CD4 T lymphocytes", "setting": "CD4 T lymphocytes", "value": "has an immunosuppressive activity"}, {"measurement": "Proliferation (%) T cell", "setting": "T lymphocyte; 3 nM, 5 μg/ml Concanavalin A, relative to non-treated group", "value": 77, "unit": "%"}, {"measurement": "Proliferation (%) T cell", "setting": "T lymphocyte; 10 nM, Concanavalin A", "value": 46, "unit": "%"}, {"measurement": "Proliferation (%) T cell", "setting": "T lymphocyte; 30 nM, Concanavalin A", "value": 4, "unit": "%"}, {"measurement": "Proliferation (%) T cell", "setting": "T lymphocyte; 100 nM, Concanavalin A", "value": 2, "unit": "%"}, {"measurement": "suppression percentage, T lymphocyte induced by concanavalin A", "setting": "T lymphocyte; 30–100 nM", "value": "96–98%"}, {"measurement": "effect on proliferation and activity of T lymphocytes", "setting": "T lymphocyte; non-cytotoxic concentrations", "value": "potential suppressive effect"}, {"measurement": "Proliferation (%) B/T cells", "setting": "B and T lymphocytes [3]; 3 nM, 5 μg/ml Pokeweed mitogen, relative to non-treated group", "value": 100, "unit": "%"}, {"measurement": "Proliferation (%) B/T cells", "setting": "B and T lymphocytes [3]; 10 nM, Pokeweed mitogen", "value": 86, "unit": "%"}, {"measurement": "Proliferation (%) B/T cells", "setting": "B and T lymphocytes [3]; 30 nM, Pokeweed mitogen", "value": 55, "unit": "%"}, {"measurement": "Proliferation (%) B/T cells", "setting": "B and T lymphocytes [3]; 100 nM, Pokeweed mitogen", "value": 17, "unit": "%"}, {"measurement": "suppression of proliferation of B/T lymphocytes induced by pokeweed mitogen", "setting": "B and T lymphocytes [3]; 30–100 nM", "value": "45–83%"}, {"measurement": "Immune Response (%)", "setting": "T lymphocytes [4]; 10 mg/kg peritoneally everyday, antibody producing cells vs non-treated animals", "value": 32, "unit": "%"}, {"measurement": "Immune Response (%)", "setting": "T lymphocytes [4]; 30 mg/kg peritoneally everyday", "value": 27, "unit": "%"}, {"measurement": "number of the antibody-producing cells", "setting": "T lymphocytes [4]; peritoneal injection everyday", "value": "significantly reduced"}, {"measurement": "Proliferation (%) B cell", "setting": "B lymphocyte; 3 nM, 5 μg/ml lipopolysaccharide, relative to non-treated group", "value": 101, "unit": "%"}, {"measurement": "Proliferation (%) B cell", "setting": "B lymphocyte; 10 nM, lipopolysaccharide", "value": 105, "unit": "%"}, {"measurement": "Proliferation (%) B cell", "setting": "B lymphocyte; 30 nM, lipopolysaccharide", "value": 87, "unit": "%"}, {"measurement": "Proliferation (%) B cell", "setting": "B lymphocyte; 100 nM, lipopolysaccharide", "value": 81, "unit": "%"}, {"measurement": "suppression of proliferation of B lymphocyte induced by lipopolysaccharide", "setting": "B lymphocyte; 30–100 nM", "value": "13–19%"}, {"measurement": "effect on proliferation of B lymphocytes", "setting": "B lymphocyte; non-cytotoxic concentrations", "value": "no influence"}, {"measurement": "Immune Response (%) B/T cells", "setting": "B and T lymphocytes [5]; 3 nM, antibody production, fifth day after sheep red blood cells, relative to untreated lymphocytes", "value": 81, "unit": "%"}, {"measurement": "Immune Response (%) B/T cells", "setting": "B and T lymphocytes [5]; 10 nM, fifth day", "value": 74, "unit": "%"}, {"measurement": "Immune Response (%) B/T cells", "setting": "B and T lymphocytes [5]; 30 nM, fifth day", "value": 64, "unit": "%"}, {"measurement": "Immune Response (%) B/T cells", "setting": "B and T lymphocytes [5]; 100 nM, fifth day", "value": 34, "unit": "%"}]}
